Like-named read-outs stand apart in the source and are kept apart here.
Key:
[1] = test system: Clostridium autoethanogenum
Text: A fermentation was started using the general fermentation process with gas and agitation were increased to minimize acetate and maximize ethanol production. Dilution rate and bacterial dilution rate were adjusted by day 4.0 to 2.0 day-^1 and 1.2 day-1, respectively. These values were maintained for the remainder of the fermentation.
On day 14.1 the concentration of B1 in media was decreased to reduce the specific B1 feed rate with all other operational parameters being kept constant.
It has been reported in the art that the limiting concentration of B1 for growth and acetate production is 6.5 μg/g cell produced.

[2] = reported in the art; cited from earlier work
[3] = test system: Clostridium autoethanogenum; assay: Example 1: fermentation with vitamin B5 concentration increased during the run, effect on 2,3-BDO production; type: cell-based
Method: This experiment was carried out according to the general fermentation process described above. […] Dilution rate and bacterial dilution rate were adjusted so that by day 5.0 these were 1.8 day^−1 and 0.85 day^−1, respectively.
On day 8.1 the concentration of vitamin B5 in media was increased 10 fold with all other operational parameters remaining the same. During this time the biomass production rate dropped slightly so accordingly the vitamin B5 feed rate was increased just over tenfold to 2180 μg/g-cell produced. Following the increase in the vitamin B5 concentration, the specific 2,3-BDO production rate and concentration increased with other parameters remaining stable.
This is a surprising result as it is only the specific 2,3-BDO production rate and the concentration of 2,3-BDO that increases while the production rate of other metabolites, e.g. ethanol and biomass remains the same.

[4] = test system: Clostridium autoethanogenum; assay: Example 3: fermentation with excess vitamin B5 from the start, effect on 2,3-BDO production; type: cell-based
Method: The example above can be compared to results when excess B5 vitamin is present in the fermentation media throughout the fermentation. […] In this case the 2,3-BDO concentration reached 9 g/L with an ethanol:2,3-BDO ratio of 2:1 (FIG. 2), and a CO uptake of 9.4 mol/L/day (FIG. 3). The feed rate of B5 vitamin throughout the fermentation was >2000 μg/g-cell produced. During day 6.0 to 7.0 as the biomass and 2,3-BDO production flattened out the feed rate of B5 vitamin was 2011 μg/g-cell produced. The specific 2,3-BDO production rate was 1.2 g/day per g-biomass, the specific ethanol production rate was 2.4 g/day per g-biomass.

Clostridium ljungdahlii = conditions: WO 2002/08438; cited from earlier work
[5] = test system: Clostridium autoethanogenum; assay: Example 5: fermentation with vitamin B7 concentration increased then reduced, effect on 2,3-BDO production; type: cell-based
Method: In this example the impact of B7 on the production of 2,3-BDO was tested using a fermentation grown according to the general fermentation process. […] Dilution rate and bacterial dilution rate were adjusted so that by day 8.0 these were 1.8 day^−1 and 0.75 day^−1 respectively. […] The results achieved at that time are summarised below;
On day 8.69 the concentration of B7 in media was increased 10 fold with all other operational parameters being kept constant. During this time the biomass production rate remained stable so the B7 feed rate was increased over tenfold to 980 μg/g cell produced. Following the increase in the B7 feed the specific 2,3-BDO production rate and the concentration of 2,3-BDO increased. The data obtained from days 13-14 are summarised below;
As the 2,3-BDO concentration was reaching a peak (day 14.04) the B7 in the media was reduced 10 fold such that the specific B7 feed rate was reduced back to 90 μg/g cell produced.
This is a surprising result as it is the specific 2,3-BDO production rate and the concentration of 2,3-BDO that increases rather than any other metabolite and or biomass.

[6] = vitamin B1 feed rate 303 μg/g cell produced, day 10.0-14.0
[7] = vitamin B1 feed rate decreased to 61 μg/g cell produced
[8] = vitamin B5 feed rate 198 μg/g-cell produced, day 6.0-8.0
[9] = vitamin B5 feed rate 2180 μg/g cell produced
[10] = B5 vitamin feed rate 2011 μg/g-cell produced, day 6.0 to 7.0
[11] = B5 vitamin feed rate >2000 μg/g-cell produced throughout the fermentation
[12] = vitamin B7 feed rate 90 μg/g cell produced, before increase
[13] = vitamin B7 feed rate 980 μg/g cell produced, days 13-14
[14] = vitamin B7 reduced back to 90 μg/g cell produced (after day 14.04)

With Cc1ncc(C[n+]2csc(CCO)c2C)c(N)n1.Cl.[Cl-] [vitamin B1, Thiamine hydrocloride] the “effect of decreasing the B1 concentration on ethanol production” value ([1]; B1 feed rate 303 to 61 μg/g cell produced, CO uptake constant) was “unaffected”, the “2,3-BDO concentration” value [1, 6] was 3.4 g/L and the Biomass [1, 6] was 5.79 g/L. The CO uptake [1, 6] was 8.0 mol/L/day, the Ethanol concentration [1, 6] was 16.05 g/L and the “Specific 2,3-BDO production rate” value [1, 6] was 1.17 g 2,3-BDO/g biomass/day. For the same compound, the “Specific Ethanol production rate” value [1, 6] was 5.54 g ethanol/g biomass/day, the “2,3-BDO titre” value [1, 7] was 1.6 g/L and the Biomass [1, 7] was 6.75 g/L. For the same compound, the CO uptake [1, 7] was 8.0 mol/L/day, the Ethanol concentration [1, 7] was 18.23 g/L and the “Specific 2,3-BDO production rate” value [1, 7] was 0.47 g 2,3-BDO/g biomass/day. The “Specific Ethanol production rate” value [1, 7] was 5.4 g ethanol/g biomass/day and the “limiting concentration of B1 for growth and acetate production” value [2] was 6.5 μg/g cell produced.
With CC(C)(CO)[C@@H](O)C(=O)NCCC(=O)O [vitamin B5, Pantothenic acid] the “2,3-BDO concentration” value [3, 8] was 4.8 g/L, the Acetate concentration [3, 8] was 7.75 g/L and the CO uptake [3, 8] was 8.4 mol/L/day. The Ethanol concentration [3, 8] was 18.69 g/L, the “Specific 2,3-BDO production rate” value [3, 8] was 0.81 g 2,3-BDO/g-biomass/day and the “Specific Ethanol production rate” value [3, 8] was 3.17 g ethanol/g-biomass/day. The Biomass ([3]; vitamin B5 feed rate 198 μg/g-cell produced, stable period day 6.0-8.0) was 10.62 g/L, the “2,3-BDO concentration” value [3, 9] was 7.0 g/L and the CO uptake [3, 9] was 8.0 mol/L/day. For the same compound, the Ethanol concentration [3, 9] was 19.49 g/L, the “Specific 2,3-BDO production rate” value [3, 9] was 1.32 g 2,3-BDO/g biomass/day and the “Specific Ethanol production rate” value [3, 9] was 3.3 g ethanol/g biomass/day. The Biomass ([3]; vitamin B5 feed rate 2180 μg/g cell produced, after 10 fold increase on day 8.1) was 10.4 g/L, the “Specific 2,3-BDO production rate” value [4, 10] was 1.2 g/day per g-biomass and the “Specific Ethanol production rate” value [4, 10] was 2.4 g/day per g-biomass. The “2,3-BDO concentration” value [4, 11] was 9 g/L, the CO uptake [4, 11] was 9.4 mol/L/day and the “vitamin B5 required for growth” value (Clostridium ljungdahlii) was 50 μg/g biomass produced.
For O=C(O)CCCC[C@@H]1SC[C@@H]2NC(=O)N[C@@H]21 [vitamin B7, Biotin], the “impact of increasing B7 on the specific ethanol production rate” value ([5]; B7 feed rate 90 to 980 μg/g cell produced) was “does not impact”, the “2,3-BDO concentration” value [5, 12] was 4.94 g/L and the Acetate concentration [5, 12] was 8.13 g/L. It also gave a Biomass [5, 12] of 9.42 g/L, a CO uptake [5, 12] of 8.0 mol/L/day and an Ethanol concentration [5, 12] of 15.63 g/L. For the same compound, the “Specific 2,3-BDO production rate” value [5, 12] was 1.19 g 2,3-BDO/g biomass/day, the “Specific Ethanol production rate” value [5, 12] was 3.78 g ethanol/g biomass/day and the “2,3-BDO concentration” value [5, 13] was 7.34 g/L. It also gave a Biomass [5, 13] of 9.23 g/L, a CO uptake [5, 13] of 7.6 mol/L/day and an Ethanol concentration [5, 13] of 14.92 g/L. The “Specific 2,3-BDO production rate” value [5, 13] was 1.97 g 2,3-BDO/g biomass/day, the “Specific Ethanol production rate” value [5, 13] was 3.85 g ethanol/g biomass/day and the “2,3-BDO concentration” value [5, 14] was 4.76 g/L. It also gave a Biomass [5, 14] of 10.53 g/L, a CO uptake [5, 14] of 7.6 mol/L/day and an Ethanol concentration [5, 14] of 15.70 g/L. For the same compound, the “Specific 2,3-BDO production rate” value [5, 14] was 1.1 g 2,3-BDO/g biomass/day and the “Specific Ethanol production rate” value [5, 14] was 3.59 g ethanol/g biomass/day.

From patent US9701987B2, “Fermentation process for the production and control of pyruvate-derived products” (priority 2014, dated 2017)
